According to article PMC7269481, “ZN148 Is a Modular Synthetic Metallo-β-Lactamase Inhibitor That Reverses Carbapenem Resistance in Gram-Negative Pathogens In Vivo” (Antimicrobial Agents and Chemotherapy, 2020):
Where two headings read alike, the source gives them in different places.

Legend:
Assay type in all cases: cell-based
[1] = system: the strains (MBL-producing Gram-negative clinical strains); experiment: Intrinsic antibacterial activity of the inhibitor; conditions: concentrations up to 500 μM
Experimental: (§1) MICs of carbapenems alone and in combination with inhibitors were determined by broth microdilution according to the Clinical and Laboratory Standards Institute (CLSI) guidelines ([48]) using either premade plates (TREK Diagnostic Systems/Thermo Fisher Scientific, East Grinstead, United Kingdom) with meropenem or in-house-prepared plates with meropenem, imipenem, and doripenem. ZN148 and other inhibitors were tested at a fixed concentration of 50 μM. Cation-adjusted Mueller-Hinton medium (TREK Diagnostic Systems/Thermo Fisher Scientific; Becton Dickinson, Franklin Lakes, NJ) were used as growth medium. The plates were incubated for 20 h at 37°C. ZN148, ZN222, ZN223, ZN228, and TPA were initially tested in combination with meropenem using two indicator strains: NDM-1-producing K. pneumoniae ([49], [50]) and VIM-2-producing P. aeruginosa ([51]). […]

[2] = system: NDM-1-producing K. pneumoniae K66-45; experiment: Time-kill assay
Experimental: To determine the kinetics of killing of the meropenem-ZN148 combination, NDM-1-producing K. pneumoniae K66-45 (1 × 10^6 CFU/ml) in cation-adjusted Mueller-Hinton broth II (Sigma-Aldrich, St. Louis, MO) was treated with either 4 mg/liter meropenem or a combination of 4 mg/liter meropenem plus 50 or 100 μM ZN148 and grown at 37°C with shaking (180 rpm). The cell number was determined over the course of 24 h by using a modified Miles-Misra method ([52]). Briefly, […] serial dilutions of culture in sterile PBS were spotted and dried on square (10 by 10 cm) Luria-Bertani agar (Oxoid, Basingstoke, UK) plates at room temperature before incubation at 37°C. The limit of detection was set as […] in […] of undiluted culture, representing 100 CFU/ml.

[3] = system: NDM-1-producing K. pneumoniae K66-45; experiment: Meropenem MIC, broth microdilution, indicator strain K66-45; conditions: for MIC: Klebsiella pneumoniae
Experimental: (§2) MICs of carbapenems alone and in combination with inhibitors were determined by broth microdilution according to the Clinical and Laboratory Standards Institute (CLSI) guidelines ([48]) using either premade plates (TREK Diagnostic Systems/Thermo Fisher Scientific, East Grinstead, United Kingdom) with meropenem or in-house-prepared plates with meropenem, imipenem, and doripenem. ZN148 and other inhibitors were tested at a fixed concentration of 50 μM. Cation-adjusted Mueller-Hinton medium (TREK Diagnostic Systems/Thermo Fisher Scientific; Becton Dickinson, Franklin Lakes, NJ) were used as growth medium. The plates were incubated for 20 h at 37°C. ZN148, ZN222, ZN223, ZN228, and TPA were initially tested in combination with meropenem using two indicator strains: NDM-1-producing K. pneumoniae ([49], [50]) and VIM-2-producing P. aeruginosa ([51]). The activity of ZN148 were subsequently tested against two extended strain collections: (i) in combination with meropenem against MBL-producing Enterobacterales (n = 62), MBL-producing P. aeruginosa (n = 9) and MBL- and class D carbapenemase-coproducing Enterobacterales (n = 5) from the strain collection at the Norwegian National Advisory Unit on Detection of Antimicrobial Resistance and (ii) in combination with meropenem, imipenem, and doripenem against globally collected MBL-producing E. coli (n = 87), K. pneumoniae (n = 85), P. aeruginosa (n = 52), and A. baumannii (n = 6), MBL- and class A/D carbapenemase-coproducing E. coli (n = 11), K. pneumoniae (n = 15) and A. baumannii (n = 7) at IHMA Europe, Sàrl, Switzerland. E. coli ATCC 25922 and P. aeruginosa ATCC 27853 were used as quality control strains. The MBL inhibitors were also tested for intrinsic antibacterial activity against the strains.

[4] = system: VIM-2-producing P. aeruginosa K34-7; experiment: Meropenem MIC, broth microdilution, indicator strain K34-7
Experimental: as §2

[5] = system: NDM-1-producing A. baumannii strains (n=6); experiment: Carbapenem MIC, NDM-1-producing A. baumannii
Experimental: as §2

[6] = system: strains coproducing MBLs and class D carbapenemases; experiment: Carbapenem potentiation, strains coproducing MBLs and class D carbapenemases; conditions: with a few exceptions; 50 μM ZN148
Experimental: as §1

[7] = system: MBL-producing Enterobacterales (n=234); experiment: Meropenem MIC distribution, all MBL-producing Enterobacterales; conditions: for No. of strains with indicated MIC: MEM alone or +50 µM ZN148
Experimental: as §2

[8] = system: NDM-1-producing K. pneumoniae 50752501; experiment: Meropenem MIC of the in vivo strain; conditions: Klebsiella pneumoniae; read-out: MEM MIC
Experimental: as §1

E. coli with NDM (n=102) = experiment: Meropenem MIC distribution, E. coli with NDM; conditions: MEM alone or +50 µM ZN148
Experimental: as §2

[9] = meropenem 4 mg/liter with either 50 or 100 μM ZN148

## CN(C[C@H](O)[C@@H](O)[C@H](O)[C@H](O)CO)C(=O)c1ccc(CN(Cc2ccccn2)Cc2ccccn2)nc1 [ZN148]
[1]
  intrinsic antibacterial activity: no intrinsic antibacterial activity
[2]; [9]
  cell numbers after 8 h (below limit of detection): < 1 × 10^2 CFU/ml
  killing effect of combination: bactericidal
  regrowth within 24 h: no regrowth
[3]; inhibitor at 50 μM
  restoration of meropenem clinical susceptibility (EUCAST breakpoints): fully restored meropenem clinical susceptibility
[4]; inhibitor at 50 μM
  restoration of meropenem clinical susceptibility (EUCAST breakpoints): fully restored meropenem clinical susceptibility
[5]; in four of six clinical strains, class D carbapenemase-negative
  reduction of meropenem MIC: > 2 fold
[6]
  potentiation of meropenem, doripenem, and imipenem: no potentiation
[7]; ZN148 at 50 μM, n = 234
  strains with meropenem MIC reduced to susceptible levels (≤2 mg/liter): > 98%

## C[C@@H](O)[C@H]1C(=O)N2C(C(=O)O)=C(S[C@@H]3CN[C@H](C(=O)N(C)C)C3)[C@H](C)[C@H]12 [meropenem]
[8]
  MIC: 64 µg/mL
[2]; meropenem alone 4 mg/liter
  cell number after 24 h: > 1 × 10^9 CFU/ml
  initial reduction in cell numbers (bacteriostatic effect): 2 log
[3]; alone or in presence of 30 µM, 50 µM or 100 µM ZN148 (Table S6 title), read-out: MIC of meropenem
  MIC: > 32 µg/mL
[3]; meropenem alone or +50 µM TPA or ZN148, read-out: Meropenem MIC
  MIC: 32 to 64 µg/mL
[4]; Pseudomonas aeruginosa, meropenem alone or +50 µM TPA or ZN148
  MIC: 32 to 64 µg/mL
[5]; carbapenem alone or in combination with 50µM ZN148, one value per strain (n=6)
  MIC: > 64 µg/mL
[7]
  MIC90: ≥ 64 µg/mL
[7]; MIC 0.5 mg/L
  No. of strains with indicated MIC: 1
[7]; MIC 1 mg/L
  No. of strains with indicated MIC: 2
[7]; MIC 2 mg/L
  No. of strains with indicated MIC: 3
[7]; MIC 4 mg/L
  No. of strains with indicated MIC: 10
[7]; MIC 8 mg/L
  No. of strains with indicated MIC: 9
[7]; MIC 16 mg/L
  No. of strains with indicated MIC: 22
[7]; MIC 32 mg/L
  No. of strains with indicated MIC: 35
[7]; MIC ≥64 mg/L
  No. of strains with indicated MIC: 152
E. coli with NDM (n=102); MIC 1 mg/L
  No. of strains with indicated MIC: 2
E. coli with NDM (n=102); MIC 4 mg/L
  No. of strains with indicated MIC: 6
E. coli with NDM (n=102); MIC 8 mg/L
  No. of strains with indicated MIC: 2
E. coli with NDM (n=102); MIC 16 mg/L
  No. of strains with indicated MIC: 8
E. coli with NDM (n=102); MIC 32 mg/L
  No. of strains with indicated MIC: 19
E. coli with NDM (n=102); MIC ≥64 mg/L
  No. of strains with indicated MIC: 65
